# Experimental data taken from patent US11040981B2, “Pyrrolotriazine compounds and methods of inhibiting TAM kinases” (Syros Pharmaceuticals, Inc., priority 2017, dated 2021).
# System: colon carcinoma CT-26 cells
# Assay: CT-26 syngeneic tumor growth inhibition, alone or with anti-PD1 antibody
# Assay type: in vivo, Balb/c female mice
# Settings: Compound 124 100 mg/kg oral twice daily combined with anti-PD1 antibody (clone RMP1-14) 10 mg/kg IP biweekly; compared with either agent as monotherapy; FIG. 3
# Method: BLAB/c syngeneic mice challenged with colon carcinoma CT-26 cells were used to test the tumor growth inhibitory activity of Compound 124 and an anti-PD1 antibody alone or in combination. CT-26 tumor cells were maintained in vitro as a monolayer culture in RPMI-1640 medium supplemented with 10% heat inactivated fetal bovine serum, 100 U/ml penicillin and 100 μg/ml streptomycin at 37° C. in an atmosphere of 5% CO2 in air. The tumor cells were routinely subcultured twice weekly by trypsin-EDTA treatment. The cells growing in an exponential growth phase were harvested and counted for tumor inoculation. […]
# Mice (8 for each regimen) were dosed with one of the following regimens: (1) twice daily oral dosing with 100 mg/kg of Compound 124; (2) biweekly IP injections with 10 mg/kg of anti-PD1 antibody (clone RMP1-14); (3) a combination of twice daily Compound 124 (100 mg/kg) and biweekly anti-PD1 antibody (10 mg/kg) or (4) an orally dosed vehicle control. Subcutaneous tumor volumes were measured three times per week starting at three days post-first dosing using caliper measurements in 2 dimensions (looking down at the tumor, using the calipers to make 2 diameter measurements at right angles to each other). The tumor volume was then calculated using the following standard formula: Tumor Volume=0.5*A*B^2, wherein A=longest diameter of the tumor; and B=shortest diameter of the tumor.
compound,measurement,value
"COC[C@H](C)Nc1ncc2c(-c3ccc(CN4CCN(C)CC4)cc3)cc([C@H]3CC[C@H](O)CC3)n2n1 (single isomer, unassigned) [Compound 124]",tumor growth (subcutaneous tumor volume),slower tumor growth
